Measured values from ChEMBL document CHEMBL4616721, “Nitrogen-Walk Approach to Explore Bioisosteric Replacements in a Series of Potent A2B Adenosine Receptor Antagonists” (J Med Chem, 2020).

Tests used:
[1] = target: T1, Adenosine receptor A1 (Homo sapiens) (UniProt P30542); experiment: Displacement [3H]DPCPX from human adenosine A1 receptor expressed in CHO cell membranes at 1 uM incubated for 60 mins by scintillation counting method relative to control
T1 sequence (whole entry): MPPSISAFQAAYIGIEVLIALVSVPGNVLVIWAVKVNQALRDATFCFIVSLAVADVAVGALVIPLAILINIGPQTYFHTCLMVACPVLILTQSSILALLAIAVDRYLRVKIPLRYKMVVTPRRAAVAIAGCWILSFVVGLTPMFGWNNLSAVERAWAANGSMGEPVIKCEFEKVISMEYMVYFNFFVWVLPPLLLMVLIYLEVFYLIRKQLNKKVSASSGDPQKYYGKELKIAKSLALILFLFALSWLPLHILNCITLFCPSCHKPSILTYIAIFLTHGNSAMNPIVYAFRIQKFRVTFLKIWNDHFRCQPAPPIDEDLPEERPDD

Adenosine receptor A2a [2] = target: T2, Adenosine receptor A2a (Homo sapiens, UniProt P29274); experiment: Displacement [3H]ZM241385 from adenosine A2A receptor in human HeLa cell membranes at 1 uM incubated for 30 mins by scintillation counting method relative to control
Adenosine receptor A2b = target: T3, Adenosine receptor A2b (Homo sapiens, UniProt P29275); experiment: Displacement [3H]DPCPX from human adenosine A2B receptor expressed in HEK293 cell membranes incubated for 60 mins by scintillation counting method
T3 sequence (P29275 whole entry): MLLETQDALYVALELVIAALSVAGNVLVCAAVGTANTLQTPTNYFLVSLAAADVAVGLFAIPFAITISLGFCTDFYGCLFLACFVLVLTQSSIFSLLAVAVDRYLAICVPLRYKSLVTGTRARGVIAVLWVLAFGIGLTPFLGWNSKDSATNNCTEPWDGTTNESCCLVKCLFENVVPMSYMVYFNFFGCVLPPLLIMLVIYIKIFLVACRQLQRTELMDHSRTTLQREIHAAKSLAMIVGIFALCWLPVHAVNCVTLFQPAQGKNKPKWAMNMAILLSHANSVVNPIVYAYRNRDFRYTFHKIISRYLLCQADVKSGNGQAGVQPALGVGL

[3] = target: T4, Adenosine receptor A3 (Homo sapiens) (UniProt P0DMS8); experiment: Displacement [3H]NECA from adenosine A3 receptor in human HeLa cell membranes at 1 uM incubated for 180 mins by scintillation counting method relative to control
T4 sequence (whole entry): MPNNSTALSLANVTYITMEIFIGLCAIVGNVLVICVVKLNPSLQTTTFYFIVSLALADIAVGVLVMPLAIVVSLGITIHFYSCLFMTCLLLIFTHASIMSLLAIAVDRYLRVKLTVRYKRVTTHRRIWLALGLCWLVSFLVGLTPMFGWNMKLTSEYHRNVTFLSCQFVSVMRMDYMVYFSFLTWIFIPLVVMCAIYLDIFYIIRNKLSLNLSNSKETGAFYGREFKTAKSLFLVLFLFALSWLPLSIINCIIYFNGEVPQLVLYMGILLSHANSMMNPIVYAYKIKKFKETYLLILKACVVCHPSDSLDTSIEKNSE

Cytochrome P450 3A4 = Cytochrome P450 3A4 (Homo sapiens, UniProt P08684); experiment: Inhibition of CYP3A4 (unknown origin) expressed in insect cell microsomes using dibenzylfluorescein substrate by fluorescence based assay; format: ADME
CYP2D6 [4] = target: T5, CYP2D6 (Homo sapiens, UniProt P10635); experiment: Inhibition of CYP2D6 (unknown origin) expressed in insect cell microsomes at 1 uM using dibenzylfluorescein substrate by fluorescence based assay relative to control; format: ADME; settings: insect cell microsomes expressing CYP2D6, probe dibenzylfluorescein
CYP2D6 [5] = target: T5, CYP2D6; experiment: Inhibition of CYP2D6 (unknown origin) expressed in insect cell microsomes at 10 uM using dibenzylfluorescein substrate by fluorescence based assay relative to control; format: ADME; settings: insect cell microsomes expressing CYP2D6, probe dibenzylfluorescein
Adenosine receptor A2a [6] = target: T2, Adenosine receptor A2a; experiment: Displacement [3H]ZM241385 from adenosine A2A receptor in human HeLa cell membranes incubated for 30 mins by scintillation counting method
Adenosine receptor A1 = target: T6, Adenosine receptor A1 (Homo sapiens, UniProt P30542); experiment: Displacement [3H]DPCPX from human adenosine A1 receptor expressed in CHO cell membranes incubated for 60 mins by scintillation counting method
T6 sequence (P30542 whole entry): T1 sequence (whole entry)

T5 sequence (P10635 whole entry): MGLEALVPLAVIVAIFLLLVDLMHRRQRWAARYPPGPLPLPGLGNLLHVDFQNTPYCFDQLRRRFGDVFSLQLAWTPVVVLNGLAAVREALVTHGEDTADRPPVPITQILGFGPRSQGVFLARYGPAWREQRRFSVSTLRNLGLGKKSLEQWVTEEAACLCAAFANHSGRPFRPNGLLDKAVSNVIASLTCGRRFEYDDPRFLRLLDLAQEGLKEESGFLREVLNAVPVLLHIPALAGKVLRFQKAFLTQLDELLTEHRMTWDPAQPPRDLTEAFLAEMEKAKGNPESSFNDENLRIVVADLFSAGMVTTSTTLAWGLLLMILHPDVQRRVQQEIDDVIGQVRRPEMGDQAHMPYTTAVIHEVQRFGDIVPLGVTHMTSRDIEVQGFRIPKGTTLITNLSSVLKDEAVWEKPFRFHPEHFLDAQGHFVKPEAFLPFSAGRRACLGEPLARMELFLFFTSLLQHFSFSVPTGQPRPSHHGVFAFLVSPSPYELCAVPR
Chain of Cytochrome P450 3A4 (P08684 whole entry): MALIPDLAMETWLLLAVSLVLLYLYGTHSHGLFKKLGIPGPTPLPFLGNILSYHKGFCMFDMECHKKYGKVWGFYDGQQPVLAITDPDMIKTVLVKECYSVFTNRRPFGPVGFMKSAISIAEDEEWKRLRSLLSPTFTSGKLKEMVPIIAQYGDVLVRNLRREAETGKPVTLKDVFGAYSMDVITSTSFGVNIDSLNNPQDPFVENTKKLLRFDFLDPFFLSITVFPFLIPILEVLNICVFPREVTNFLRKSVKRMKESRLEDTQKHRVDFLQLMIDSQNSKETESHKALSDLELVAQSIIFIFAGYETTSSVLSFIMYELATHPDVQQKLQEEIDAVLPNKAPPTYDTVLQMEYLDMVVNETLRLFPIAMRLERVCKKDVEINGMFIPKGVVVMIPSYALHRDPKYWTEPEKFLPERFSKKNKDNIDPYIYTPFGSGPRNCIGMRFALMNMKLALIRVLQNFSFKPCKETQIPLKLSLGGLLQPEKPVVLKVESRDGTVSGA
T2 sequence (P29274 whole entry): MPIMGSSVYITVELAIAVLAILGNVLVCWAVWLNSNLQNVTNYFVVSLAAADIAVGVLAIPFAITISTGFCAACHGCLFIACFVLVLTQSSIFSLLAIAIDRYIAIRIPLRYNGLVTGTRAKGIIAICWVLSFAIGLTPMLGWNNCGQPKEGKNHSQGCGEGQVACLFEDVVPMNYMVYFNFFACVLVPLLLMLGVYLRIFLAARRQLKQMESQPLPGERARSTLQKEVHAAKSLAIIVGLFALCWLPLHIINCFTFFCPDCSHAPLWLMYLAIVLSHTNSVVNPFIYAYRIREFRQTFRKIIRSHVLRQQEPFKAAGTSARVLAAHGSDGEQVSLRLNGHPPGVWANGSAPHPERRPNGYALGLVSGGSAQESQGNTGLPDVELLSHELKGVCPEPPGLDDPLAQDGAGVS

## CC1=C(C(=O)OC(C)C)C(c2cocn2)n2c(nc3ccccc32)N1 (racemic)
[1]
  inhibition: 7%
Adenosine receptor A2a [2]
  inhibition: 19%
Adenosine receptor A2b
  Ki: 43.4 nM
[3]
  inhibition: 16%
Cytochrome P450 3A4
  IC50: 5920 nM
CYP2D6 [4]
  inhibition at 1 µM: 23%
CYP2D6 [5]
  inhibition at 10 µM: 43%

## CCOC(=O)C1=C(C)Nc2nc3ccccc3n2C1c1nccs1 (racemic)
[1]
  inhibition: 3%
Adenosine receptor A2a [6]
  Ki: 3 nM
Adenosine receptor A2b
  Ki: 388 nM
[3]
  inhibition: 1%

## CC1=C(C(=O)OC(C)C)C(c2ccno2)n2c(nc3ccccc32)N1 (racemic)
[1]
  inhibition: 37%
Adenosine receptor A2a [2]
  inhibition: 7%
Adenosine receptor A2b
  Ki: 1030 nM
[3]
  inhibition: 1%

## CCOC(=O)C1=C(C)Nc2nc3ccccc3n2C1c1cnsc1 (racemic)
[1]
  inhibition: 20%
Adenosine receptor A2a [2]
  inhibition: 11%
[3]
  inhibition: 14%

## CCOC(=O)C1=C(C)Nc2nc3ccccc3n2C1c1ccc[nH]1 (racemic)
[1]
  inhibition: 45%
Adenosine receptor A2a [2]
  inhibition: 2%
Adenosine receptor A2b
  Ki: 49.6 nM
[3]
  inhibition: 9%

## CC1=C(C(=O)OC(C)C)C(c2cscn2)n2c(nc3ccccc32)N1 (racemic)
[1]
  inhibition: 1%
Adenosine receptor A2a [2]
  inhibition: 3%
[3]
  inhibition: 18%

## CCOC(=O)C1=C(C)Nc2nc3ccccc3n2C1c1cc[nH]n1 (racemic)
[1]
  inhibition: 8%
Adenosine receptor A2a [2]
  inhibition: 11%
Adenosine receptor A2b
  Ki: 707 nM
[3]
  inhibition: 1%

## CC1=C(C(=O)OC(C)C)C(c2cn[nH]c2)n2c(nc3ccccc32)N1 (racemic)
Adenosine receptor A1
  Ki: 8.3 nM
Adenosine receptor A2a [2]
  inhibition: 40%
Adenosine receptor A2b
  Ki: 340 nM
[3]
  inhibition: 6%

## CC1=C(C(=O)OC(C)C)C(c2ccc[nH]2)n2c(nc3ccccc32)N1 (racemic)
[1]
  inhibition: 38%
Adenosine receptor A2a [2]
  inhibition: 19%
Adenosine receptor A2b
  Ki: 31.3 nM
[3]
  inhibition: 1%

## CCOC(=O)C1=C(C)Nc2nc3ccccc3n2C1c1ccc(C)o1 (racemic)
[1]
  inhibition: 14%
Adenosine receptor A2a [2]
  inhibition: 1%
[3]
  inhibition: 3%

## CC1=C(C(=O)OC(C)C)C(c2cnco2)n2c(nc3ccccc32)N1 (racemic)
Adenosine receptor A1
  Ki: 301 nM
Adenosine receptor A2a [2]
  inhibition: 38%
[3]
  inhibition: 39%

## CC1=C(C(=O)OC(C)C)Cn2c(nc3ccccc32)N1
[1]
  inhibition: 31%
Adenosine receptor A2a [2]
  inhibition: 4%
[3]
  inhibition: 13%

## CCOC(=O)C1=C(C)Nc2nc3ccccc3n2C1c1cnoc1 (racemic)
[1]
  inhibition: 21%
Adenosine receptor A2a [2]
  inhibition: 30%
Adenosine receptor A2b
  Ki: 23.4 nM
[3]
  inhibition: 13%
Cytochrome P450 3A4
  IC50: 4920 nM
CYP2D6 [4]
  inhibition at 1 µM: 6%
CYP2D6 [5]
  inhibition at 10 µM: 37%

## CC1=C(C(=O)OC(C)C)C(c2cncs2)n2c(nc3ccccc32)N1 (racemic)
[1]
  inhibition: 2%
Adenosine receptor A2a [2]
  inhibition: 3%
Adenosine receptor A2b
  Ki: 68.3 nM
[3]
  inhibition: 5%

## CC1=C(C(=O)OC(C)C)C(c2ccoc2)n2c(nc3ccccc32)N1 (racemic)
Adenosine receptor A2a [2]
  inhibition: 22%
Cytochrome P450 3A4
  IC50: 2680 nM
CYP2D6 [4]
  inhibition at 1 µM: 8%
CYP2D6 [5]
  inhibition at 10 µM: 31%

## CC1=C(C(=O)OC(C)C)C(c2nccs2)n2c(nc3ccccc32)N1 (racemic)
[1]
  inhibition: 5%
Adenosine receptor A2a [2]
  inhibition: 4%
Adenosine receptor A2b
  Ki: 753 nM
[3]
  inhibition: 20%

## CCOC(=O)C1=C(C)Nc2nc3ccccc3n2C1c1ccno1 (racemic)
[1]
  inhibition: 1%
Adenosine receptor A2a [2]
  inhibition: 1%
Adenosine receptor A2b
  Ki: 714 nM
[3]
  inhibition: 11%

## CC1=C(C(=O)OC(C)C)C(c2ncco2)n2c(nc3ccccc32)N1 (racemic)
[1]
  inhibition: 1%
Adenosine receptor A2a [6]
  Ki: 1 nM
Adenosine receptor A2b
  Ki: 708 nM
[3]
  inhibition: 10%

## CCOC(=O)C1=C(C)Nc2nc3ccccc3n2C1c1cncs1 (racemic)
[1]
  inhibition: 32%
Adenosine receptor A2a [2]
  inhibition: 1%
Adenosine receptor A2b
  Ki: 215 nM
[3]
  inhibition: 1%

## CC1=C(C(=O)OC(C)C)C(c2ccc(C)o2)n2c(nc3ccccc32)N1 (racemic)
[1]
  inhibition: 14%
Adenosine receptor A2a [2]
  inhibition: 3%
[3]
  inhibition: 1%

## CC1=C(C(=O)OC(C)C)C(c2cnsc2)n2c(nc3ccccc32)N1 (racemic)
[1]
  inhibition: 9%
Adenosine receptor A2a [2]
  inhibition: 11%
Adenosine receptor A2b
  Ki: 278 nM
[3]
  inhibition: 14%

## CCOC(=O)C1=C(C)Nc2nc3ccccc3n2C1c1c[nH]cn1 (racemic)
[1]
  inhibition: 7%
Adenosine receptor A2a [2]
  inhibition: 16%
[3]
  inhibition: 3%

## CCOC(=O)C1=C(C)Nc2nc3ccccc3n2C1c1ccns1 (racemic)
Adenosine receptor A1
  Ki: 20.2 nM
Adenosine receptor A2a [2]
  inhibition: 7%
Adenosine receptor A2b
  Ki: 98.7 nM
[3]
  inhibition: 8%

## CCOC(=O)C1=C(C)Nc2nc3ccccc3n2C1c1cscn1 (racemic)
[1]
  inhibition: 1%
Adenosine receptor A2a [2]
  inhibition: 1%
[3]
  inhibition: 2%

## CC1=C(C(=O)OC(C)C)C(C2CCCC2)n2c(nc3ccccc32)N1 (racemic)
[1]
  inhibition: 14%
Adenosine receptor A2a [2]
  inhibition: 2%
[3]
  inhibition: 23%

## CC1=C(C(=O)OC(C)C)C(c2cc[nH]n2)n2c(nc3ccccc32)N1 (racemic)
[1]
  inhibition: 1%
Adenosine receptor A2a [2]
  inhibition: 7%
Adenosine receptor A2b
  Ki: 1100 nM
[3]
  inhibition: 2%

## CCOC(=O)C1=C(C)Nc2nc3ccccc3n2C1c1ncco1 (racemic)
[1]
  inhibition: 8%
Adenosine receptor A2a [6]
  Ki: 2 nM
Adenosine receptor A2b
  Ki: 769 nM
[3]
  inhibition: 10%

## CCOC(=O)C1=C(C)Nc2nc3ccccc3n2C1c1ncc[nH]1 (racemic)
[1]
  inhibition: 6%
Adenosine receptor A2a [6]
  Ki: 5 nM
Adenosine receptor A2b
  Ki: 402 nM
[3]
  inhibition: 1%
Cytochrome P450 3A4
  IC50: 4540 nM
CYP2D6 [4]
  inhibition at 1 µM: 8%
CYP2D6 [5]
  inhibition at 10 µM: 18%

## CCOC(=O)C1=C(C)Nc2nc3ccccc3n2C1c1ccccc1 (racemic)
[1]
  inhibition: 12%
Adenosine receptor A2a [2]
  inhibition: 9%
[3]
  inhibition: 15%

## CC1=C(C(=O)OC(C)C)C(c2ccccc2)n2c(nc3ccccc32)N1 (racemic)
[1]
  inhibition: 9%
Adenosine receptor A2a [2]
  inhibition: 3%
[3]
  inhibition: 9%

## CC1=C(C(=O)OC(C)C)C(c2ncc[nH]2)n2c(nc3ccccc32)N1 (racemic)
[1]
  inhibition: 2%
Adenosine receptor A2a [2]
  inhibition: 4%
[3]
  inhibition: 2%

## CC1=C(C(=O)OC(C)C)C(c2cnoc2)n2c(nc3ccccc32)N1 (racemic)
[1]
  inhibition: 1%
Adenosine receptor A2a [2]
  inhibition: 2%
Adenosine receptor A2b
  Ki: 29.6 nM
[3]
  inhibition: 5%

## CC1=C(C(=O)OC(C)C)C(c2c[nH]cn2)n2c(nc3ccccc32)N1 (racemic)
[1]
  inhibition: 5%
Adenosine receptor A2a [2]
  inhibition: 4%
[3]
  inhibition: 8%

## CC1=C(C(=O)OC(C)C)C(c2ccco2)n2c(nc3ccccc32)N1 (racemic)
Adenosine receptor A2a [2]
  inhibition: 25%
Cytochrome P450 3A4
  IC50: 2900 nM
CYP2D6 [4]
  inhibition at 1 µM: 5%
CYP2D6 [5]
  inhibition at 10 µM: 35%

## CC1=C(C(=O)OC(C)C)C(c2ccns2)n2c(nc3ccccc32)N1 (racemic)
[1]
  inhibition: 24%
Adenosine receptor A2a [2]
  inhibition: 18%
Adenosine receptor A2b
  Ki: 175 nM
[3]
  inhibition: 4%

## CCOC(=O)C1=C(C)Nc2nc3ccccc3n2C1c1cn[nH]c1 (racemic)
Adenosine receptor A1
  Ki: 14.8 nM
Adenosine receptor A2a [2]
  inhibition: 28%
Adenosine receptor A2b
  Ki: 92.6 nM
[3]
  inhibition: 1%

## CCOC(=O)C1=C(C)Nc2nc3ccccc3n2C1c1ccon1 (racemic)
[1]
  inhibition: 2%
Adenosine receptor A2a [2]
  inhibition: 1%
Adenosine receptor A2b
  Ki: 789 nM
[3]
  inhibition: 3%

## CCOC(=O)C1=C(C)Nc2nc3ccccc3n2C1c1cc[nH]c1 (racemic)
[1]
  inhibition: 26%
Adenosine receptor A2a [2]
  inhibition: 7%
Adenosine receptor A2b
  Ki: 449 nM
[3]
  inhibition: 1%

## CC1=C(C(=O)OC(C)C)C(c2cc[nH]c2)n2c(nc3ccccc32)N1 (racemic)
[1]
  inhibition: 19%
Adenosine receptor A2a [2]
  inhibition: 1%
Adenosine receptor A2b
  Ki: 517 nM
[3]
  inhibition: 2%

## CCOC(=O)C1=C(C)Nc2nc3ccccc3n2C1C1CCCC1 (racemic)
[1]
  inhibition: 11%
Adenosine receptor A2a [2]
  inhibition: 10%
[3]
  inhibition: 17%

## CCOC(=O)C1=C(C)Nc2nc3ccccc3n2C1
[1]
  inhibition: 34%
Adenosine receptor A2a [2]
  inhibition: 11%
[3]
  inhibition: 9%

## CC1=C(C(=O)OC(C)C)C(c2ccon2)n2c(nc3ccccc32)N1 (racemic)
[1]
  inhibition: 1%
Adenosine receptor A2a [2]
  inhibition: 2%
Adenosine receptor A2b
  Ki: 721 nM
[3]
  inhibition: 4%
